The record followed here is article PMC5064435, “Inhibition of endoplasmic reticulum glucosidases is required for in vitro and in vivo dengue antiviral activity by the iminosugar UV-4” (Antiviral Research, 2016).

Some results are limits rather than exact numbers.

Type in all cases: biochemical
For one experiment, the target named is T1, Rat intestinal sucrase (Rattus norvegicus, UniProt P23739).
T1 construct: gene Si; native rat intestinal enzyme; sucrase (C-terminal) subunit of sucrase-isomaltase
T1 sequence (P23739 1014-1841 limits assumed): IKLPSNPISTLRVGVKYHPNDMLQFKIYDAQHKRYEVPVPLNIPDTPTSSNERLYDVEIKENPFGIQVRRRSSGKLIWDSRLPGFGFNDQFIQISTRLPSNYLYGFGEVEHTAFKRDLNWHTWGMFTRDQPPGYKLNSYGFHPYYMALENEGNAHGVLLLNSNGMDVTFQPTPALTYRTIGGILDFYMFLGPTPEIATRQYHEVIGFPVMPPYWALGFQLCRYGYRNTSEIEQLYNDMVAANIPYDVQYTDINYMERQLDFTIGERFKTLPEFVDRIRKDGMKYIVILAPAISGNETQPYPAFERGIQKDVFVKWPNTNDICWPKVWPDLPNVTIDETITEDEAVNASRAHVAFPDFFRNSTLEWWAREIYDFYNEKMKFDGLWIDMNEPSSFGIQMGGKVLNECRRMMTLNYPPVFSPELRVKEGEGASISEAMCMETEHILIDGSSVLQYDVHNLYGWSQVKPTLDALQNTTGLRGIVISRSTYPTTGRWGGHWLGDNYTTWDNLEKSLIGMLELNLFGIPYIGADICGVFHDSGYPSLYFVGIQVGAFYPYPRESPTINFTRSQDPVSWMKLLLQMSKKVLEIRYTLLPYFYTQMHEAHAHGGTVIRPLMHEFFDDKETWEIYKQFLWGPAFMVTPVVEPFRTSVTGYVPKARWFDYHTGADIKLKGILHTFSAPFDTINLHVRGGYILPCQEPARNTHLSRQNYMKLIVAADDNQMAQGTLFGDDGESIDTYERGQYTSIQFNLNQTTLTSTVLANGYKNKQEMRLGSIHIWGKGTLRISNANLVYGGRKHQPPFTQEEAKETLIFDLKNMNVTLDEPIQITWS
The experiment can be described thus: enzyme inhibition assay. Particulars: read-out: IC50 ^a / MON-6d-DGJ. From the text:
enzyme inhibition assay on Rat intestinal sucrase

A further experiment concerns the target T2, Rat intestinal maltase.
T2 construct: gene Mgam; native rat intestinal enzyme activity; maltase may be maltase-glucoamylase and/or sucrase-isomaltase
The experiment can be described thus: enzyme inhibition assay. The settings on record: IC50 not reached up to maximal dose; read-out: IC50 ^a / MON-6d-DGJ. From the text:
enzyme inhibition assay on Rat intestinal maltase

Experiment [1] addresses T3, Rat intestinal isomaltase (Rattus norvegicus, UniProt P23739).
T3 construct: gene Si; native rat intestinal enzyme; isomaltase (N-terminal) subunit of sucrase-isomaltase
The experiment can be described thus: enzyme inhibition assay. Particulars: read-out: IC50 ^a / MON-6d-DGJ. The source says: enzyme inhibition assay on Rat intestinal isomaltase

The target in the next experiment is T4, Mouse ER α-glucosidase I (Mus musculus, UniProt Q80UM7).
T4 construct: gene Mogs
T4 sequence (Q80UM7 1-834): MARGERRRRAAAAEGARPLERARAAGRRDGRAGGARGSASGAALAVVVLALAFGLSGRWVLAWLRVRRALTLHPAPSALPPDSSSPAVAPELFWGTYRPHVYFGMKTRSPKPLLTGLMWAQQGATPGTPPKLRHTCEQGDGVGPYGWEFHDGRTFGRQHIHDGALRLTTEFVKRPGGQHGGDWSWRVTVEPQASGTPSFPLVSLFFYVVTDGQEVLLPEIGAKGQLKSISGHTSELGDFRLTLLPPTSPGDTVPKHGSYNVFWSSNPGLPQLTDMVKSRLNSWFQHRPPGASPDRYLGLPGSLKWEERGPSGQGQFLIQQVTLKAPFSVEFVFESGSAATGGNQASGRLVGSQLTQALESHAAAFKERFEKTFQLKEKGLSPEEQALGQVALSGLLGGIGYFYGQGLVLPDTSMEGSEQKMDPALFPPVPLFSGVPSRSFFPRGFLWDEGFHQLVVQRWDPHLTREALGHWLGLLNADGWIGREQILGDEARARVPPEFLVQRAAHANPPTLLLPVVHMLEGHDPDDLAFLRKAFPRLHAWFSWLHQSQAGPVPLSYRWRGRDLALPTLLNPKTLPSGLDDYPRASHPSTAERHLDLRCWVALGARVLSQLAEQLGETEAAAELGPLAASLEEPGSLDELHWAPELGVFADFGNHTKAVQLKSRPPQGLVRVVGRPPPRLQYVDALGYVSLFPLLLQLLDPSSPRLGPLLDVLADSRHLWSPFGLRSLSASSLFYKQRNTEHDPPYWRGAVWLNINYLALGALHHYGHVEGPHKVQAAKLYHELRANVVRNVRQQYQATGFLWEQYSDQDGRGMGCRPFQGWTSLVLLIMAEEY
As to the kind of experiment: enzyme inhibition assay, purified enzyme. Particulars: read-out: IC50 ^a / MON-6d-DGJ. The source says:
enzyme inhibition assay, purified enzyme on Mouse ER α-glucosidase I

In experiment [2] the target is T5, Human lysosome (α-glucosidase) (Homo sapiens, UniProt P10253).
T5 construct: gene GAA
The experiment can be described thus: enzyme inhibition assay. The settings on record: read-out: IC50 ^a / MON-6d-DGJ. From the text: enzyme inhibition assay on Human lysosome (α-glucosidase)

Experiment [3] concerns the target T6, Human lysosome (α-galactosidase) (Homo sapiens, UniProt P06280).
T6 construct: gene GLA
T6 sequence (P06280 32-429): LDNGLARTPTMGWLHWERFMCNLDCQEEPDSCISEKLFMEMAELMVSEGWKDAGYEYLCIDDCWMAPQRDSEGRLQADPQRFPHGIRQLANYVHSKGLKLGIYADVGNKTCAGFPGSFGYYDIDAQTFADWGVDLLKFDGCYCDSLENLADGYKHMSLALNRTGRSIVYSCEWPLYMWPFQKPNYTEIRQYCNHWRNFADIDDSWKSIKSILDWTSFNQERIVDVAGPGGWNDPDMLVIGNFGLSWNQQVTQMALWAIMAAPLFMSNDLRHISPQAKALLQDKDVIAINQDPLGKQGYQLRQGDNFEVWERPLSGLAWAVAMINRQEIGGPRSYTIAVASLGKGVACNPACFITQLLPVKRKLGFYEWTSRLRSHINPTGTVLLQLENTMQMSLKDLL
As to the kind of experiment: enzyme inhibition assay. The settings on record: read-out: IC50 ^a / MON-6d-DGJ. From the text: enzyme inhibition assay on Human lysosome (α-galactosidase)

Experiment [4] addresses T7, ceramide glucosyltransferase (HL60 glucosyltransferase) (Homo sapiens, UniProt Q16739).
T7 construct: gene UGCG; native enzyme isolated from human promyelocytic HL60 cells
T7 sequence (Q16739 1-394): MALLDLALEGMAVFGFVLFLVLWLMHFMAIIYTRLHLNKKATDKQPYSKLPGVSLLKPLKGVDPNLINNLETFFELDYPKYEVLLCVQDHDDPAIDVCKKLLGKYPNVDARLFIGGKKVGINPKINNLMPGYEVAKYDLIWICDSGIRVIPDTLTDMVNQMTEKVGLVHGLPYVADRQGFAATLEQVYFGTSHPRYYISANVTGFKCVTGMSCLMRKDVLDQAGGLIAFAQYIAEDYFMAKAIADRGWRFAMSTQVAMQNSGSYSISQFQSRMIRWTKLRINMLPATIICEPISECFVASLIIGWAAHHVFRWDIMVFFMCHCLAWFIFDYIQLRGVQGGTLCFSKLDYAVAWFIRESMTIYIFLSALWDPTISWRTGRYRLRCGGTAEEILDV
The experiment can be described thus: enzyme inhibition assay, enzyme isolated from HL60 cells. The settings on record: read-out: IC50 ^a / MON-6d-DGJ. The source says:
enzyme inhibition assay, enzyme isolated from HL60 cells on ceramide glucosyltransferase (HL60 glucosyltransferase)

The target in experiment [5] is T8, Mouse ER α-glucosidase II (Mus musculus, UniProt Q8BHN3).
T8 construct: gene Ganab; with Glucosidase 2 subunit beta
T8 sequence (Q8BHN3 33-944): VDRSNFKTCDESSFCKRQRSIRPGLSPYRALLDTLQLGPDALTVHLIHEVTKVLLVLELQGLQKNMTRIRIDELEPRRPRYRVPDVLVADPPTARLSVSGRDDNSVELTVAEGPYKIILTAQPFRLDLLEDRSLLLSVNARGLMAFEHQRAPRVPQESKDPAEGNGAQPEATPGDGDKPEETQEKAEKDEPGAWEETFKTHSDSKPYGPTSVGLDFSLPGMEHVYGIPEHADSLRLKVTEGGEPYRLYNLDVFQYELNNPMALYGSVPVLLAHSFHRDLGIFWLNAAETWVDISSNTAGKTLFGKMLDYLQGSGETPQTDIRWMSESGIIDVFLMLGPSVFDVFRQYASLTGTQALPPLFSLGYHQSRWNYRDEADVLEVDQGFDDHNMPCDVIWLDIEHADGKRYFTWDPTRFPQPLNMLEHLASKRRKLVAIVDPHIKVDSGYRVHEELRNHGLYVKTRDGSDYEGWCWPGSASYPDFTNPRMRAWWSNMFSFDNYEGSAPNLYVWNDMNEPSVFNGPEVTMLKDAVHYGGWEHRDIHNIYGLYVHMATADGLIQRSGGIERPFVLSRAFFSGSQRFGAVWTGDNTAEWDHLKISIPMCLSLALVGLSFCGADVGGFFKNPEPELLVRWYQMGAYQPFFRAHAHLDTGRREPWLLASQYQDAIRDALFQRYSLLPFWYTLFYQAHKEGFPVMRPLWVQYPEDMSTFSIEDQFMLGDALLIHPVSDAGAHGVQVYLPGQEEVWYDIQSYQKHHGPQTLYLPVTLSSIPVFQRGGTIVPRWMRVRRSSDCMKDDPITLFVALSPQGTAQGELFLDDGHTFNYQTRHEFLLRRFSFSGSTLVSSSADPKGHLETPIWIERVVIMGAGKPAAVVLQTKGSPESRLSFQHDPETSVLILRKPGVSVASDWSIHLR
T8 sequence (O08795 15-521 partner): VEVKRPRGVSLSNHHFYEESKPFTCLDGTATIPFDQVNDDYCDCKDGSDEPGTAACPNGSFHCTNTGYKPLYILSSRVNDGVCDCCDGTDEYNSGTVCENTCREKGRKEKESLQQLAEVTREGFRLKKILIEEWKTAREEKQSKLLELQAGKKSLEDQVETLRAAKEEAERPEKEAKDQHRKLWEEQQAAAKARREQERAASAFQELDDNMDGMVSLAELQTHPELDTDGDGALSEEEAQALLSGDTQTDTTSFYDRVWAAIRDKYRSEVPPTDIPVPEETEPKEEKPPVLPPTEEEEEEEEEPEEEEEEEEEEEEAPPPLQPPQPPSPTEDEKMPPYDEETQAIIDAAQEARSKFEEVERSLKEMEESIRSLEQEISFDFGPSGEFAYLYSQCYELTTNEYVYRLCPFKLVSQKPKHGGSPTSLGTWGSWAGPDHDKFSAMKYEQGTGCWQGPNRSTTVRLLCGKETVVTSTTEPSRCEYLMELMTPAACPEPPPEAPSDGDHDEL
As to the kind of experiment: enzyme inhibition assay, purified enzyme. Particulars: read-out: IC50 ^a / MON-6d-DGJ. The source says:
enzyme inhibition assay, purified enzyme on Mouse ER α-glucosidase II

T3 sequence (P23739 1-1013 limits assumed): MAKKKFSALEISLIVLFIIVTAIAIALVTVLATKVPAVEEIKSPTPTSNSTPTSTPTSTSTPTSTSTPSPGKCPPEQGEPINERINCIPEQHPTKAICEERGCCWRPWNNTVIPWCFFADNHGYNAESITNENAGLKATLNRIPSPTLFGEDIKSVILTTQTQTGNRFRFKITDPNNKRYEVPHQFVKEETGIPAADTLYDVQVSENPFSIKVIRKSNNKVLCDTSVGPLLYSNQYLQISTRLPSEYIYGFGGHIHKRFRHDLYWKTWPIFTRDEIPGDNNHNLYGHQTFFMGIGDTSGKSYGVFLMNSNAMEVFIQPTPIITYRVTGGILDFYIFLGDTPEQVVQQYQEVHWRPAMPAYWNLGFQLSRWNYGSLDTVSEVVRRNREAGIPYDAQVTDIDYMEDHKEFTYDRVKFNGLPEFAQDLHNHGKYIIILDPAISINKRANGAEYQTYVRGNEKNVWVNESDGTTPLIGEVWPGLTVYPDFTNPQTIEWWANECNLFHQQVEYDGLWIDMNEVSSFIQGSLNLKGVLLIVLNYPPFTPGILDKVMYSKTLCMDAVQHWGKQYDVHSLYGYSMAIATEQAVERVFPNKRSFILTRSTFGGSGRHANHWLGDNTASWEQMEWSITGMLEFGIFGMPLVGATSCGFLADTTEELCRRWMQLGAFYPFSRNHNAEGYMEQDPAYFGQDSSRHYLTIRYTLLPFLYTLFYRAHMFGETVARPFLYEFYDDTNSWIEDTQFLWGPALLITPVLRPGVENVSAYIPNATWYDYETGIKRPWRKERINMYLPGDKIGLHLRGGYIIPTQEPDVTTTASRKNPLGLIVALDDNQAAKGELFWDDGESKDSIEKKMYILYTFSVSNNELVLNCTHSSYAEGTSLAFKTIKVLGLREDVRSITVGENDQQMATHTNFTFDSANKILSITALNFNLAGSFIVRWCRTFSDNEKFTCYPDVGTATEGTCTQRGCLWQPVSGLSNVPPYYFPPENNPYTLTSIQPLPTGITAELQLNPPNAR

Regarding `COCCCCCCCCCN1C[C@H](O)[C@@H](O)[C@@H](O)[C@H]1C` [MON-6d-DGJ, N-(9′-methoxynonyl)-1,6-dideoxygalactonojirimycin], the IC50 on Rat intestinal sucrase is more than 1.05 mM; at Rat intestinal maltase it was more than 1.05 mM; in experiment [1] it was more than 1.05 mM; on Mouse ER α-glucosidase I, more than 1.05 mM; in experiment [2] it was more than 1.05 mM; in experiment [3], 256 µM. Also, the IC50 was 88.3 µM in experiment [4] and more than 1.05 mM in experiment [5].
